Measurements reported in patent publication US9605047B2, “Compositions and methods for treating hypertension” (The Brigham and Women's Hospital, Inc., priority 2012, dated 2017).

How the values were obtained:
eNOS = eNOS activity ([14C] arginine, NOS activity kit) in HPAECs; assay type: cell-based, human; details: ET-1 (10 nM) stimulated HPAECs, without or with aldosterone; n=3
Protocol: eNOS activity. eNOS activity was measured using the NOS activity kit (Cayman) according to the manufacturer's instructions with some modifications. Cells were washed with PBS containing 1 mM EDTA, transferred to a microcentrifuge tube, and centrifuged at 14,000×g at 4° C. for 2 min. The supernatant was decanted and homogenization buffer (250 mM Tris-HCl, pH 7.4, 6 μM BH4, 2 μM flavin adenine dinucleotide, and 2 μM flavin adenine mononucleotide) was added to the cell pellets. […] The samples were then centrifuged at 14,000×g for 30 seconds and radioactivity of the eluant was quantified in a liquid scintillation counter (Beckman-Coulter).

[1] = tested on: ETB-dependent NO. generation in HPAECs; experiment: NO. metabolites (NO2−, NO3−) in ET-1-stimulated HPAECs; assay type: cell-based, human; details: n=3
Protocol: Cell culture and treatments. Human pulmonary artery endothelial cells (HPAECs) (Lonza) (male donors) were grown to confluence using phenol-free EGM-2 medium supplemented with 5% fetal bovine serum at 37° C., 5% CO2. Cells were passaged twice-weekly using 0.5% trypsin/EDTA, and experiments were performed on cells from passages 4-10. Aldosterone (Steraloids) and ET-1 (1-100 nM) (Sigma-Aldrich) were dissolved in dimethylsufloxide (10 nmol/L) and deoxygenated water, respectively, which served as vehicle controls. Cells were treated with aldosterone (10^−−10^−7 mol/L) for 24 h and in selected experiments co-incubated with the mineralocorticoid receptor inhibitor spironolactone (10 μM/l) (Sigma-Aldrich).
NO. metabolites. Nitrite (NO2^−) and nitrate (NO3^−) were measured in cell culture medium containing 2% fetal bovine serum and L-arginine (1 mmol/l) (Sigma-Aldrich) by 1(H)-naphthotriazole fluorescence (Cayman) as previously reported.^1 To measure NO2^− levels in whole lung tissue, lung specimens were harvested from rats and snap frozen in liquid nitrogen.

ETA, ETB, eNOS = experiment: ETA, ETB and eNOS protein levels in HPAECs by Western analysis; assay type: cell-based, human
Protocol: Immunoblotting. Proteins were size fractionated electrophoretically using SDS-PAGE and transferred to polyvinylidene fluoride membranes. The membranes were incubated with anti-ETA (Santa Cruz Biotechnology), anti-ETB (Santa Cruz Biotechnology), anti-NOX4 (Santa Cruz Biotechnology), anti-[…]^phox (Santa Cruz), anti-eNOS (Cell Signaling), anti-PGC-1α (Santa Cruz Biotechnology), and anti-SF (Santa Cruz Biotechnology) antibodies overnight at 4° C. and visualized using the ECL detection system (Amersham Biosciences). In experiments to assess ETA expression, purified ETA protein (Novus Biological) was loaded to serve as an internal control.

[2] = tested on: NOX4 and NOX4 subunit p22^phox; experiment: NOX4 and p22phox protein levels in HPAECs by Western analysis; assay type: cell-based, human; details: n=3
Protocol: Cell culture and treatments. Human pulmonary artery endothelial cells (HPAECs) (Lonza) (male donors) were grown to confluence using phenol-free EGM-2 medium supplemented with 5% fetal bovine serum at 37° C., 5% CO2. Cells were passaged twice-weekly using 0.5% trypsin/EDTA, and experiments were performed on cells from passages 4-10. Aldosterone (Steraloids) and ET-1 (1-100 nM) (Sigma-Aldrich) were dissolved in dimethylsufloxide ([…]) and deoxygenated water, respectively, which served as vehicle controls. Cells were treated with aldosterone (10^−−10^−7 mol/L) for 24 h and in selected experiments co-incubated with the mineralocorticoid receptor inhibitor spironolactone (10 μM/l) (Sigma-Aldrich).
Immunoblotting. Proteins were size fractionated electrophoretically using SDS-PAGE and transferred to polyvinylidene fluoride membranes. The membranes were incubated with anti-ETA (Santa Cruz Biotechnology), anti-ETB (Santa Cruz Biotechnology), anti-NOX4 (Santa Cruz Biotechnology), anti-p22P^phox (Santa Cruz), anti-eNOS (Cell Signaling), anti-PGC-1α (Santa Cruz Biotechnology), and anti-SF (Santa Cruz Biotechnology) antibodies overnight at 4° C. and visualized using the ECL detection system (Amersham Biosciences). In experiments to assess ETA expression, purified ETA protein (Novus Biological) was loaded to serve as an internal control.

HPAECs [3] = experiment: Amplex Red assay of hydrogen peroxide levels in HPAECs; assay type: cell-based, human; details: aldosterone 10^−7 mol/L, 24 h, HPAECs; vs V 65.4±1.6; n=3
Protocol: Human pulmonary artery endothelial cells (HPAECs) (Lonza) (male donors) were grown to confluence using phenol-free EGM-2 medium supplemented with 5% fetal bovine serum at 37° C., 5% CO2. Cells were passaged twice-weekly using 0.5% trypsin/EDTA, and experiments were performed on cells from passages 4-10. Aldosterone (Steraloids) and ET-1 (1-100 nM) (Sigma-Aldrich) were dissolved in dimethylsufloxide (10 nmol/L) and deoxygenated water, respectively, which served as vehicle controls. Cells were treated with aldosterone (10^−−10^−7 mol/L) for 24 h and in selected experiments co-incubated with the mineralocorticoid receptor inhibitor spironolactone (10 μM/l) (Sigma-Aldrich).

[4] = molecular target: T1, ETB cysteinyl thiols (region containing Cys405) (Homo sapiens, UniProt P24530); experiment: Western analysis to detect ETB disulfide bond formation in HPAECs; assay type: cell-based; details: aldosterone 10^−7 mol/L 24 h or H2O2 200 μmol/L 20 min
T1 construct: endogenous in cells; host or cells: HPAECs (Lonza)
T1 sequence (P24530 27-442): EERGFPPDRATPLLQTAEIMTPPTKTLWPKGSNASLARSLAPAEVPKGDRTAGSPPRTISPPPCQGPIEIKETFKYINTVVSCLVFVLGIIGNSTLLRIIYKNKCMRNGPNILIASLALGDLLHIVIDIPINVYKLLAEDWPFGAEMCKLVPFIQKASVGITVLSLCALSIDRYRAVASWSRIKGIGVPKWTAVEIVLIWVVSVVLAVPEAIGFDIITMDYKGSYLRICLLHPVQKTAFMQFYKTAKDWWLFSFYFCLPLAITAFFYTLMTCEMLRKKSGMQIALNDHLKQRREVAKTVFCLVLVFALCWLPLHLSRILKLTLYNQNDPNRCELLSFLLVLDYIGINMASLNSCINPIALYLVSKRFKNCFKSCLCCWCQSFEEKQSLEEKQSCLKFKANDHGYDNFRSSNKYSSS
Protocol: Western analysis to detect ETB disfulfide bond formation. Western analysis to detect ETB disulfide bond formation was performed as described previously.^7 Briefly, protein extracts from cells were lysed in alkylating buffer containing 0.1 M Tris-HCL, pH 6.8, 1% SDS, 100 mM iodoacetamide, and 100 mM N-ethylmaleimide, and sonicated on ice for 5 min followed by a 30-min incubation at 25° C. Alkylated proteins were then precipitated with acetone. Proteins were resuspended in 50 μl of 0.1 M Tris-HCl, pH 7.4, 1% SDS; and disulfides were reduced with 5 mM tris(2-carboxyethyl)phosphine hydrochloride (TCEP). Following a 20-min incubation at 25° C., TCEP was removed with a Micro Bio-Spin™ column 6 (Bio-Rad), and 1% SDS was added to the eluant. The cysteines previously participating in a disulfide bond, now reduced, were labeled with 1 mM polyethylene glycol-conjugated maleimide (molecular mass 10 kDa) (Fluka). After a 1-h incubation at 25° C., proteins were precipitated with acetone, resuspended in 50 μl of non-reducing SDS electrophoresis buffer, and boiled for 10 min. Protein samples were then size-fractionated electrophoretically using SDS-PAGE, and transferred to a polyvinylidene fluoride membrane. […]

[5] = tested on: ETB region containing Cys405; experiment: ETB sulfenic acid (R-SOH) by immunoprecipitation and immunoblot in HPAECs; assay type: cell-based, human; details: aldosterone 10^−7 mol/L, 24 h, vs V, n=3
Protocol: Co-immunoprecipitation of proteins. Cell monolayers were washed twice with ice-cold PBS and incubated on ice with RIPA buffer supplemented with various protease inhibitors (Millpore). Cells were scraped with a rubber policeman and samples were rotated at 4° C. for 15 min. Lysates were centrifuged at 14,000×g at 4° C. for 15 min and the then pre-cleared with a 50% slurry of Protein G agarose beads (Santa Cruz Biotechnology) mixed with PBS. Following removal of the beads by centrifugation, cell lysates were incubated with an anti-ETB or anti-PGC-1α antibody (Santa Cruz Biotechnology) overnight at 4° C. The immunocomplex was captured by incubating lysates with 50% Protein G agarose bead slurry at 4° C. for 1 h. Beads were collected by pulse centrifugation, resuspended in non-reducing sample buffer, and then boiled for 10 min to dissociate the immunocomplex from the beads. Western analysis was performed with an anti-SF (Santa Cruz) or anti-sulfenic acid (R—SOH) antibody (Millpore) as described above.

HPAECs [6] = experiment: 3-Nitrotyrosine immunohistochemistry in HPAECs; assay type: cell-based, human; details: V 24.1±3.3, n=5
Protocol: 3-Nitrotyrosine immunohistochemistry. Cells grown to confluence on glass chamber slides were fixed following treatments and anti-3-nitrotyrosine immunohistochemistry (Santa Cruz Biotechnology) was performed using the 3,3′-diaminobenzidine substrate method (Vector laboratories) as described previously.^1

[7] = aldosterone 10^−7 mol/L, 24 h, HPAECs

SMILES: C[C@]12CCC(=O)C=C1CC[C@@H]1[C@@H]2[C@@H](O)C[C@]2(C=O)[C@@H](C(=O)CO)CC[C@@H]12 [aldosterone]
- eNOS activity (eNOS): 7.6±2.4 [^14C] L-citrulline c.p.m./μg protein
- total NO. metabolite (NOx: NO2^−+NO3^−) formation ([1]; ET-1 (10 nM) stimulated HPAECs, without or with aldosterone): 103.4±12.2 μM/μg protein
- decrease in ETB-mediated NO2^− levels ([1]; aldosterone 10^−7 mol/L, 24 h, then ET-1 10 nM, HPAECs): 60.3%
- decrease in NO2^−/NO3^− ratio ([1]; aldosterone in ET-1-stimulated HPAECs): 62%
- expression of ETA (ETA, ETB, eNOS; [7]): Without influencing protein expression of ETB, or inducing
- protein expression of ETB (ETA, ETB, eNOS; [7]): Without influencing
- eNOS protein levels (ETA, ETB, eNOS; aldosterone-treated HPAECs): Without influencing
- protein levels of NOX4 ([2]; aldosterone 10^−7 mol/L): 157.0±4.4 % control
- protein levels of p22^phox ([2]; aldosterone 10^−7 mol/L): 829.5±295.6 % control
- protein levels of NOX4 ([2]; aldosterone 10^−8 mol/L): 146.3±12.4 % control
- protein levels of p22^phox ([2]; aldosterone 10^−8 mol/L): 961±226.2 % control
- protein levels of NOX4 ([2]; aldosterone 10^−9 mol/L): 134.6±16.5 % control
- protein levels of p22^phox ([2]; aldosterone 10^−9 mol/L): 1009.4±167.0 % control
- H2O2 accumulation (HPAECs [3]): 100.6±3.5 μM/mg protein
- ETB disulfide bond formation (bands at 70 kDa and 90 kDa) [4]: de novo formation of one or two disulfide bonds
- increase in ETB-SOH protein expression levels [5]: 639%
- levels of 3-nitrotyrosine (HPAECs [6]): 46.8±6.6 arb. units
